As usually defined, the IC50 is the midpoint of a concentration-inhibition curve.

This note sets out measurements from ChEMBL document CHEMBL1641601, “Design, synthesis, and testing of an 6-O-linked series of benzimidazole based inhibitors of CDK5/p25” (Bioorg Med Chem, 2011).

For this experiment, the target named is Cyclin-dependent kinase 5/CDK5 activator 1 (Homo sapiens, UniProt Q00535). Put plainly: Inhibition of CDK5/P25 GST-fusion protein assessed as substrate histone H1 phosphorylation by scintillation counting. The class given is protein-complex assay.
Sequence of Cyclin-dependent kinase 5/CDK5 activator 1 (Q00535 whole entry, the tested form may be a part): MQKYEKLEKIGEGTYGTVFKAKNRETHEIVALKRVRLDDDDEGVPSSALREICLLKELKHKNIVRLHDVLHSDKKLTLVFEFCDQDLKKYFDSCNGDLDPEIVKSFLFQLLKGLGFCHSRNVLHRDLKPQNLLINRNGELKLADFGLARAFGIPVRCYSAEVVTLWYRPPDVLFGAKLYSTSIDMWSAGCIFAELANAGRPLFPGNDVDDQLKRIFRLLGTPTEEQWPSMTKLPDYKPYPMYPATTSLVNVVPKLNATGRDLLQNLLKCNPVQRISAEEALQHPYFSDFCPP
Sequence of Cyclin-dependent kinase 5/CDK5 activator 1 (Q15078 whole entry, further chain, the tested form may be a part): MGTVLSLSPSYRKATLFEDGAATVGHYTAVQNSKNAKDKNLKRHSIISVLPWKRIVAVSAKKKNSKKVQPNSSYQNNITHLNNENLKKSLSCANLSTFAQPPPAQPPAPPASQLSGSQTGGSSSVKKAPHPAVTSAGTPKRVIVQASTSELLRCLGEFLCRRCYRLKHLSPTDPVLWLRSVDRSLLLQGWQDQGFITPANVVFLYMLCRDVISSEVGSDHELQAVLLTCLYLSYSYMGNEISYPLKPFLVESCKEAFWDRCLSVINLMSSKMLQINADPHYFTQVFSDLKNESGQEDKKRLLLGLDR
For the compound `COc1cc(NCc2ccccc2)c2ncn(C(C)C)c2c1`, the IC50 was above 10 µM.

For the compound `CCC(CO)Oc1cc(NCc2ccccc2)c2ncn(C(C)C)c2c1` (configuration not stated), the IC50 came out at 13 µM.

As to `CCOc1cc(NCc2ccccc2)c2ncn(C(C)C)c2c1`, the IC50 is above 100 µM.

On to `CCCOc1cc(NCc2ccccc2)c2ncn(C(C)C)c2c1`, for which the IC50 is above 100 µM.

As for `CCCCOc1cc(NCc2ccccc2)c2ncn(C(C)C)c2c1`, the IC50 is above 100 µM.

`COCCOc1cc(NCc2ccccc2)c2ncn(C(C)C)c2c1`: the IC50 is above 100 µM.

Regarding `CCC(CN(C)C)Oc1cc(NCc2ccccc2)c2ncn(C(C)C)c2c1` (configuration not stated), the IC50 was above 100 µM.

With `CC(C)n1cnc2c(NCc3ccccc3)cc(OCC3CCN(C)CC3)cc21`, the IC50 was above 100 µM.

Take `CCC(COC)Oc1cc(NCc2ccccc2)c2ncn(C(C)C)c2c1` (configuration not stated): the IC50 is above 10 µM.

Take `CC(C)n1cnc2c(NCc3ccccc3)cc(OCCO)cc21`: the IC50 is above 100 µM.

As to `CCC(O)COc1cc(NCc2ccccc2)c2ncn(C(C)C)c2c1` (configuration not stated), the IC50 was above 100 µM.

Consider `CC(C)n1cnc2c(NCc3ccccc3)cc(OCC3CCNCC3)cc21`, for which the IC50 was above 100 µM.
